In general, Km refers to the substrate concentration at which the rate is half of its maximum.

This experiment has as its system T1, Neutral α-glucosidase (NAG).
T1 construct: gene MGAM; native, unpurified enzyme in human seminal plasma
The experiment in a line: spectrophotometric PNP release at […] nm, Michaelis-Menten. It is filed as biochemical, Homo sapiens. The note with it: seminal plasma, not purified; average of semen samples (n = 13 in methods); adapted proprietary buffer with SDS, pH 6.8, 37 °C.

On to `O=[N+]([O-])c1ccc(O[C@H]2O[C@H](CO)[C@@H](O)[C@H](O)[C@H]2O)cc1` [para-nitrophenyl-α-D-glucopyranoside], for which the Km worked out at 4.6 ± 0.63 mM.
